Tested on: LLC (Lewis Lung Carcinoma) tumor
Assay: Tumor growth inhibition in LLC subcutaneous model
Type: in vivo, C57BL/6 mice
Settings: LLC s.c.; antibody 10 mg/kg i.p. every 2-3 days; Cpt 3 mg/kg i.p. once
Protocol: 2C8H11 anti-Ang2 antibody was tested for its ability to inhibit tumor growth in LLC (Lewis Lung Carcinoma) cell line tumor model. Specifically, LLC cell line (ATCC) was cultured in DMEM (GIBCO™) supplemented with 10% FBS (GIBCO™). LLC cells (1×10^6 in 100 μl of PBS) were subcutaneously injected into 6˜8-week-old C57BL/6 mice (Jackson Laboratory) which were anesthetized with a mixture of Ketamine and Xylazine. When the volume of the tumors reached 50˜100 mm^3, the mice were intraperitoneally administered with 10 mg/kg of 2C8H11 antibody every 2˜3 days. Cisplatin (Cpt) was injected intraperitoneally once at a dose of 3 mg/kg in both monotherapy and combination therapy groups. The changes in tumor volume was tracked over the following days. Tumor volume (V) was measured using the formula: V=(width^2×length)/2 V=(width^2×length)/2
The experiment was performed in 4 groups: Fc (control group), Fc+Cpt group, 2C8H11 group, and 2C8H11+Cpt group. […] Meanwhile, combined treatment with 2C8H11 and Cpt delayed tumor growth by 47% compared with Fc.

With `N.N.[Cl][Pt][Cl]` [Fc+Cpt, Cisplatin, reference compound] the “tumor growth inhibition compared with Fc” value was “similar”.

Reference: patent US12331106B2, “Anti-angiopoietin-2 antibodies that induce Tie2 activation” (Institute for Basic Science, priority 2018, dated 2025)
